Patent US8614254B2, “Methods and compositions for treating thalamocortical dysrhythmia” (New York University, priority 2007, dated 2013)

Experiments:
[1] = test system: EEG frequency profile; test: EEG recording with Fast Fourier transform frequency analysis in wild type and alpha-1A knockout mice; type: in vivo, mouse
Procedure: Alpha1A knockout mice, which have an enhanced Cav3 calcium channel activity, develop progressive neurological symptoms resembling Thalamo-cortical Dysrhythmia characterized specifically by ataxia and dystonia, before dying, around four weeks after birth (Jun et al. (1999) Proc. Natl. Acad. Sci. USA. 96(26):15245-50).
When a Fast Fourier transform analysis is performed in two segments of 1 second each (FIG. 7A, segments a and b) from the same wild type trace, a wide range of frequencies is observed. Importantly, the presence of high frequencies in the range of gamma band is observed (FIG. 7A, red arrows). In contrast, an alpha-1A knockout mouse presents a totally different EEG recoding.
The administration of 1-octanol (Sinton et al., (1989) Pflügers Archiv 414: 31-36) in wild types versus knockout mice allows the quantification of the effects of such a drug in the high and low frequencies in the EEG. Since knockout mice only present low frequencies, a dose-response curve of 1-octanol can be easily prepared. Also, an augmentation in the ratio of high/low frequencies is expected for the wild types treated with 1-octanol.
Analysis of the frequency components plotted in blue bars show a decrease in the low frequencies (0-15 Hz) and an increase in hi frequencies (30-45 Hz) consistent with the fact that Cav3 channels are responsible for low frequencies and their block produces an increase in high frequency.

[2] = test system: thalamic neurons (low threshold spikes, low frequency oscillations); type: cell-based
[3] = test system: high voltage activated calcium currents; test: Whole-cell voltage-clamp patch recording, slow component when low and high voltage activated calcium currents are open; type: cell-based, rodents (Long-Evans rats, Harley guinea pigs); details: 10 μM; −10 mV, both low and high voltage activated calcium currents open; FIG. 1B
[4] = test system: low threshold activated Cav3 calcium currents (Cav3.1); test: Whole-cell voltage-clamp patch recording of low threshold activated calcium currents in ventrobasal thalamic neurons of brain slices; type: cell-based, rodents (Long-Evans rats, Harley guinea pigs); details: for Cav3 peak currents (I-V curve): FIG. 2B
[5] = test system: thalamic neurons (low threshold spike); type: cell-based, mouse
[6] = test system: thalamic neurons (high-frequency 40 Hz subthreshold oscillation); type: cell-based, mouse
[7] = 50 μM, wild-type mouse, TTX 2 μM
[8] = wild-type mice, i.p., 0.2 mg/kg, FIG. 7D

## CCCCCCCCO [1-octanol]
[1]; wild types treated, expected
  ratio of high/low frequencies in the EEG: augmentation
[2]; 50 μM, FIG. 4A and 4B
  peak of low threshold spikes activated using ramps of current: further decreases
[2]; after blocking Cav3 calcium currents, same amplitude current pulse
  membrane resistance: increments
[2]; current clamp, FIG. 4A and 4B
  effect on the low threshold spikes: concentration-dependent
[3]
  slow component that remains open at the end of the depolarized pulse: leaving unchanged
[4]; 10 μM, holding level −30 mV where only low voltage activated calcium currents can be open, FIG. 1A
  block of peak fast activated Cav3.1 calcium current (ICa) amplitude: about 30%
[4]; ventrobasal thalamic neurons, conclusion from FIG. 1A and 1B
  specificity of block of low threshold activated Cav3-type currents: specifically block

## CCCCCCC(C)O (centres unmarked) [2-octanol]
[2]; 10 μM, five min. of perfusion, FIG. 3A
  thalamic low frequency oscillatory activity (low threshold spikes firing at 2 Hz): complete abolishment
[2]; after 40 min. of washout
  reversibility of the abolishment of oscillatory activity: partially reversible
[2]; after TTX removal from the external solution, FIG. 5A and 5B
  low threshold spike: block
[2]; after TTX removal, after block of low threshold spike, increment in input resistance
  frequency of action potentials of the thalamic neurons: notably increased
[4]; 10 μM
  Cav3 peak currents (I-V curve): partially reduced
[4]; 100 μM
  Cav3 peak currents (I-V curve): almost abolished
[4]; 100 μM, voltage clamp, high Cs/QX314 intracellular solution
  low threshold activated Cav3 calcium currents: completely abolished
[4]; holding −70 mV, steps to −60, −30, −20 and −10 mV, FIG. 2A
  Cav3 calcium currents peak with increasing concentrations: progressive reduction

## CCCCCCCCO [octanol]
[5]; [7]
  rebound low threshold spike: abolished
[5]; alpha1A-KO mouse, TTX, FIG. 6B
  low threshold spike: blocked
[1]; [8]
  EEG hi frequencies (30-45 Hz): increase
  EEG low frequencies (0-15 Hz): decrease
[6]; [7]
  40 Hz oscillations on depolarizing square pulses: are observed
[6]; alpha1A-KO mouse, before or after application
  high-frequency 40 Hz oscillations: no high-frequency 40 Hz oscillations are present
[6]; summary of the examples
  high frequency oscillations in the thalamic neurons: does not appear to affect
[4]; clinical concentrations at micromolar level, summary of the examples
  low threshold activated Cav3 calcium currents of neurons of the thalamic Ventrobasal nucleus: significantly reversibly block
